In the test the test system is PAH-FBs. Kind of test: Apoptosis by Cell Death Detection ELISAPLUS in PAH fibroblasts. It counts as cell-based, human. The settings on record: PAH-FBs isolated ex vivo; various concentrations; vs DMSO; 24 h. An excerpt: Diese Untersuchungen führten zu der Erkenntnis, dass die epigenetische Regulation der entwicklungsbedingten TF-Expression in der Lunge durch Modulation der EP300/CREBBP-Funktion rückgängig gemacht werden kann. Die Wirkung des niedermolekularen Inhibitors (Substanz, Wirkstoff) SGC-CBP30 auf die Proliferation von Gefäßzellen, die Apoptose sowie die Gen- und Proteinexpression wurde mit Hilfe geeigneter Assays nach der Transfektion untersucht. Nachdem Zellen zur Subkonfluenz gewachsen sind, wurde ihnen mit steigenden Konzentrationen der selektive EP300-Inhibitor SGC-CBP30 (Sigma, Katalognummer: SML1133) hinzugefügt. Die aus PAH-Patienten isolierten FBs wurden also mit dem isoformselektiven HAT-Inhibitor SGC-CBP30 behandelt. Gleichzeitig wurde den Zellen das Lösungsmittel DMSO (Sigma) mit entsprechenden Konzentrationen hinzugefügt. […]
• A: PAH-FBs wurden mit siRNAs (siP300) behandelt, die auf EP300 abzielen (n=3), um die genspezifische funktionelle Rolle von EP300 bei der Hyperproliferation ex vivo 48 Stunden nach der Transfektion zu untersuchen. […] Skalenbalken: 50 µm. • E: Die Wirkung der P300-Inhibition (200 µM) auf den Gefäßumbau wurde durch Quantifizierung der prozentualen medialen Wanddicke in den mit dem EP300/CREBBP-Inhibitor SGC-CBP30 inkubierten PCLS im Vergleich zu den mit DMSO inkubierten Kontrollen bewertet. […]

`COc1ccc(CCc2nc3cc(-c4c(C)noc4C)ccc3n2C[C@H](C)N2CCOCC2)cc1Cl` [SGC-CBP30, 2-[2-(3-Chloro-4-methoxyphenyl)ethyl]-5-(3,5-dimethyl-1,2-oxazol-4-yl)-1-[(S)-2-(morpholin-4-yl)propyl]-1H-benzimidazole]: the Apoptoserate entry was “schwächte den hyperproliferativen Phänotyp und die Apoptoserate von PAH-FBs und PAH-SMCs deutlich ab”.
